Measured values from ChEMBL document CHEMBL3046609, “Herbicidal properties of the thaxtomin group of phytotoxins” (2001).
Active and inactive are the calls of the source. The calls are words filed in the database; no cut-off is given here.

Key:
[1] = tested on: Helianthus annuus; assay: Herbicidal activity against Helianthus annuus (sunflower) assessed as visual injury at 10 ug/seedling applied to meristem after 1 week relative to control; assay type: functional
[2] = tested on: Helianthus annuus; assay: Herbicidal activity against Helianthus annuus (sunflower) assessed as visual injury at 100 ug/seedling applied to meristem after 1 week relative to control; assay type: functional
[3] = tested on: Agrostis stolonifera var. palustris; assay: Herbicidal activity against Agrostis stolonifera var. palustris assessed as stunting after 9 days by agarose-based test; assay type: functional, organism-based
[4] = tested on: Helianthus annuus; assay: Herbicidal activity against Helianthus annuus (sunflower) assessed as visual injury at 1 ug/seedling applied to cotyledon after 1 week relative to control; assay type: functional
[5] = tested on: Helianthus annuus; assay: Herbicidal activity against Helianthus annuus (sunflower) assessed as visual injury at 10 ug/seedling applied to cotyledon after 1 week relative to control; assay type: functional
[6] = tested on: Helianthus annuus; assay: Herbicidal activity against Helianthus annuus (sunflower) assessed as visual injury at 100 ug/seedling applied to cotyledon after 1 week relative to control; assay type: functional
[7] = tested on: Helianthus annuus; assay: Herbicidal activity against Helianthus annuus (sunflower) assessed as visual injury at 1 ug/seedling applied to meristem after 1 week relative to control; assay type: functional
[8] = tested on: Abutilon theophrasti; assay: Herbicidal activity against Abutilon theophrasti (velvetleaf) assessed as visual injury at 1 ug/seedling applied to leaf after 1 week relative to control; assay type: functional
[9] = tested on: Abutilon theophrasti; assay: Herbicidal activity against Abutilon theophrasti (velvetleaf) assessed as visual injury at 10 ug/seedling applied to leaf after 1 week relative to control; assay type: functional
[10] = tested on: Abutilon theophrasti; assay: Herbicidal activity against Abutilon theophrasti (velvetleaf) assessed as visual injury at 100 ug/seedling applied to leaf after 1 week relative to control; assay type: functional
[11] = tested on: Abutilon theophrasti; assay: Herbicidal activity against Abutilon theophrasti (velvetleaf) assessed as visual injury at 1 ug/seedling applied to meristem after 1 week relative to control; assay type: functional
[12] = tested on: Abutilon theophrasti; assay: Herbicidal activity against Abutilon theophrasti (velvetleaf) assessed as visual injury at 10 ug/seedling applied to meristem after 1 week relative to control; assay type: functional
[13] = tested on: Abutilon theophrasti; assay: Herbicidal activity against Abutilon theophrasti (velvetleaf) assessed as visual injury at 100 ug/seedling applied to meristem after 1 week relative to control; assay type: functional
[14] = tested on: Arabidopsis thaliana; assay: Growth inhibition of Arabidopsis thaliana var. Columbia assessed as root tip puffing after 9 days by agarose-based test; assay type: functional, organism-based
[15] = tested on: Arabidopsis thaliana; assay: Growth inhibition of Arabidopsis thaliana var. Columbia assessed as stunting after 9 days by agarose-based test; assay type: functional, organism-based
[16] = tested on: Agrostis stolonifera var. palustris; assay: Herbicidal activity against Agrostis stolonifera var. palustris after 9 days by agarose-based test; assay type: functional
[17] = tested on: Arabidopsis thaliana; assay: Growth inhibition of Arabidopsis thaliana var. Columbia after 9 days by agarose-based test; assay type: functional
[18] = tested on: Agrostis stolonifera var. palustris; assay: Herbicidal activity against Agrostis stolonifera var. palustris assessed as root tip puffing after 9 days by agarose-based test; assay type: functional, organism-based
[19] = tested on: Avena fatua; assay: Post-emergence growth inhibition of Avena fatua assessed as visual injury at 0.25 kg/ha after 9 days relative to control; assay type: functional; set-up: scale not given: the % may be the effect or the level left
[20] = tested on: Avena fatua; assay: Post-emergence growth inhibition of Avena fatua assessed as visual injury at 0.5 kg/ha after 9 days relative to control; assay type: functional; set-up: scale not given: the % may be the effect or the level left
[21] = tested on: Avena fatua; assay: Post-emergence growth inhibition of Avena fatua assessed as visual injury at 1 kg/ha after 9 days relative to control; assay type: functional; set-up: scale not given: the % may be the effect or the level left
[22] = tested on: Avena fatua; assay: Post-emergence growth inhibition of Avena fatua assessed as visual injury at 2 kg/ha after 9 days relative to control; assay type: functional; set-up: scale not given: the % may be the effect or the level left
[23] = tested on: Echinochloa crus-galli; assay: Post-emergence herbicidal activity against Echinochloa crus-galli (barnyard grass) assessed as visual injury at 0.25 kg/ha after 9 days relative to control; assay type: functional
[24] = tested on: Echinochloa crus-galli; assay: Post-emergence herbicidal activity against Echinochloa crus-galli (barnyard grass) assessed as visual injury at 0.5 kg/ha after 9 days relative to control; assay type: functional
[25] = tested on: Echinochloa crus-galli; assay: Post-emergence herbicidal activity against Echinochloa crus-galli (barnyard grass) assessed as visual injury at 1 kg/ha after 9 days relative to control; assay type: functional
[26] = tested on: Echinochloa crus-galli; assay: Post-emergence herbicidal activity against Echinochloa crus-galli (barnyard grass) assessed as visual injury at 2 kg/ha after 9 days relative to control; assay type: functional
[27] = tested on: Ipomoea hederacea; assay: Post-emergence herbicidal activity against Ipomoea hederacea (ivy-leaved morning glory) assessed as visual injury at 0.25 kg/ha after 9 days relative to control; assay type: functional
[28] = tested on: Ipomoea hederacea; assay: Post-emergence herbicidal activity against Ipomoea hederacea (ivy-leaved morning glory) assessed as visual injury at 0.5 kg/ha after 9 days relative to control; assay type: functional
[29] = tested on: Ipomoea hederacea; assay: Post-emergence herbicidal activity against Ipomoea hederacea (ivy-leaved morning glory) assessed as visual injury at 1 kg/ha after 9 days relative to control; assay type: functional
[30] = tested on: Ipomoea hederacea; assay: Post-emergence herbicidal activity against Ipomoea hederacea (ivy-leaved morning glory) assessed as visual injury at 2 kg/ha after 9 days relative to control; assay type: functional
[31] = tested on: Helianthus annuus; assay: Post-emergence growth inhibition of Helianthus annuus (sunflower) assessed as visual injury at 0.25 kg/ha after 9 days relative to control; assay type: functional; set-up: scale not given: the % may be the effect or the level left
[32] = tested on: Helianthus annuus; assay: Post-emergence growth inhibition of Helianthus annuus (sunflower) assessed as visual injury at 0.5 kg/ha after 9 days relative to control; assay type: functional; set-up: scale not given: the % may be the effect or the level left
[33] = tested on: Helianthus annuus; assay: Post-emergence growth inhibition of Helianthus annuus (sunflower) assessed as visual injury at 1 kg/ha after 9 days relative to control; assay type: functional; set-up: scale not given: the % may be the effect or the level left
[34] = tested on: Helianthus annuus; assay: Post-emergence growth inhibition of Helianthus annuus (sunflower) assessed as visual injury at 2 kg/ha after 9 days relative to control; assay type: functional; set-up: scale not given: the % may be the effect or the level left
[35] = tested on: Ipomoea hederacea; assay: Post-emergence herbicidal activity against Ipomoea hederacea (ivy-leaved morning glory) after 9 days; assay type: functional
[36] = tested on: Avena fatua; assay: Post-emergence growth inhibition of Avena fatua assessed as visual injury at 0.125 kg/ha after 9 days relative to control; assay type: functional; set-up: scale not given: the % may be the effect or the level left
[37] = tested on: Echinochloa crus-galli; assay: Post-emergence herbicidal activity against Echinochloa crus-galli (barnyard grass) assessed as visual injury at 0.125 kg/ha after 9 days relative to control; assay type: functional
[38] = tested on: Ipomoea hederacea; assay: Post-emergence herbicidal activity against Ipomoea hederacea (ivy-leaved morning glory) assessed as visual injury at 0.125 kg/ha after 9 days relative to control; assay type: functional
[39] = tested on: Helianthus annuus; assay: Post-emergence growth inhibition of Helianthus annuus (sunflower) assessed as visual injury at 0.125 kg/ha after 9 days relative to control; assay type: functional; set-up: scale not given: the % may be the effect or the level left

| SMILES | Activity [1] [%] | Activity [2] [%] | Activity [3] | Activity [4] [%] | Activity [5] [%] | Activity [6] [%] | Activity [7] [%] | Activity [8] [%] | Activity [9] [%] | Activity [10] [%] | Activity [11] [%] | Activity [12] [%] | Activity [13] [%] | growth inhibition (GI) [14] | growth inhibition (GI) [15] | I50 [16] [ppb] | I50 [17] [ppb] | Activity [18] | also measured |
| --- | --- | --- | --- | --- | --- | --- | --- | --- | --- | --- | --- | --- | --- | --- | --- | --- | --- | --- | --- |
| O=C1N[C@@H](Cc2c[nH]c3cccc([N+](=O)[O-])c23)C(=O)N[C@H]1Cc1ccccc1 [DES-N-METHYLTHAXTOMIN C] | 0 | 50 | Active | 0 | 0 | 0 | 0 | 0 | 0 | 0 | 0 | 0 | 10 | Active | Active | 600 | 400 | Active | – |
| CN1C(=O)[C@](O)(Cc2ccc(O)c(O)c2)N(C)C(=O)[C@@H]1Cc1c[nH]c2cccc([N+](=O)[O-])c12 [HYDROXYTHAXTOMIN A] | – | – | Active | – | – | – | – | – | – | – | – | – | – | Active | Active | 40 | 10 | Active | – |
| CN1C(=O)[C@](O)(Cc2ccccc2)NC(=O)[C@@H]1Cc1c[nH]c2cccc([N+](=O)[O-])c12 [HYDROXYTHAXTOMIN C] | 95 | 100 | Active | 0 | 0 | 20 | 80 | 0 | 0 | 0 | 0 | 20 | 70 | Active | Active | <40 | <40 | Active | – |
| CN1C(=O)[C@](O)(Cc2ccccc2O)N(C)C(=O)[C@@H]1Cc1c[nH]c2cccc([N+](=O)[O-])c12 [THAXTOMIN A O-ISOMER] | – | – | Active | – | – | – | – | – | – | – | – | – | – | Active | Active | 90 | 100 | Active | Activity [19]: 0%; Activity [20]: 0%; Activity [21]: 0%; Activity [22]: 0%; Activity [23]: 0%; Activity [24]: 0%; Activity [25]: 0%; Activity [26]: 20%; Activity [27]: 0%; Activity [28]: 10%; Activity [29]: 40%; Activity [30]: 40%; Activity [31]: 0%; Activity [32]: 10%; Activity [33]: 75%; Activity [34]: 75% |
| CN1C(=O)[C@](O)(Cc2ccc(O)cc2)N(C)C(=O)[C@@H]1Cc1c[nH]c2cccc([N+](=O)[O-])c12 [THAXTOMIN A P-ISOMER] | – | – | Active | – | – | – | – | – | – | – | – | – | – | Active | Active | 100 | 190 | Active | – |
| CN1C(=O)[C@](O)(Cc2ccccc2)N(C)C(=O)[C@@H]1Cc1c[nH]c2cccc([N+](=O)[O-])c12 [THAXTOMIN B] | – | – | Active | – | – | – | – | – | – | – | – | – | – | Active | Active | – | 28 | Active | – |
| CN1C(=O)[C@H](Cc2ccccc2)NC(=O)[C@@H]1Cc1c[nH]c2cccc([N+](=O)[O-])c12 [THAXTOMIN C] | 30 | 75 | Active | 0 | 0 | 0 | 0 | 0 | 0 | 0 | 0 | 0 | 50 | Active | Active | 40 | 50 | Active | GR50 [35]: <125 g/ha; Activity [36]: 0%; Activity [19]: 0%; Activity [20]: 0%; Activity [21]: 0%; Activity [37]: 0%; Activity [23]: 0%; Activity [24]: 20%; Activity [25]: 40%; Activity [38]: 70%; Activity [27]: 80%; Activity [28]: 80%; Activity [29]: 80%; Activity [39]: 30%; Activity [31]: 30%; Activity [32]: 30%; Activity [33]: 70% |
